According to patent US20260078120A1, “SUBSTITUTED PYRIDOPYRIMIDINONES” (MIRATI THERAPEUTICS, INC., priority 2022, published 2026):

How the values were obtained:
[1] = system: SKBR3 (PI3Kα wild type) cells; assay: CellTiter-Glo 2.0 luminescent cell viability assay, 72 hours, SKBR3 cells; format: cell-based; conditions: Homo sapiens, SK-BR-3, 72 h, SKBR3 (PI3Kα wild type) cells, CellTiter-Glo, approximately 72 hours; read-out: SKBR3 (WT) Viability IC50
Summary of the method: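 Viability measured via CTG luminescence following roughly 72 hours of compound exposure at 37° C. Dosing used a 10 um starting concentration diluted 1:4 over 10 points; percent-of-vehicle data fitted with a variable-slope four-parameter model for IC50.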

[2] = system: T47D (PI3Kα H1047R mutant) cells; assay: CellTiter-Glo 2.0 luminescent cell viability assay, 72 hours, T47D cells; format: cell-based; conditions: Homo sapiens, T47D, 72 h, T47D (PI3Kα H1047R mutant) cells, CellTiter-Glo, approximately 72 hours; read-out: T47D (H1047R mutant) Viability IC50
Summary of the method: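 Cells seeded at 1000 per well overnight were dosed with a 10-concentration, 1:4 series starting at 10 µM and incubated ~72 h at 37° C. Viability was read by CellTiter-Glo 2.0 luminescence after 30 min at room temperature. IC50 came from four-parameter fits of percent vehicle control.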

Compound | IC50 [1] | IC50 [2]
Cc1cc([C@H](C)Nc2ccccc2C(=O)O)c2nc(N3Cc4ccccc4C3)cc(=O)n2c1 [Example 11-406, (S)-2-((1-(2-(isoindolin-2-yl)-7-methyl-4-oxo-4H-pyrido[1,2-a]pyrimidin-9-yl)ethyl)amino)benzoic acid] | > 10000 nM | 864 nM
Cc1ccc2c(c1)CN(c1nc3c([C@@H](C)Nc4ccccc4C(=O)O)cc(C)cn3c(=O)c1C)C2 [Example 11-17, (R)-2-((1-(3,7-dimethyl-2-(5-methylisoindolin-2-yl)-4-oxo-4H-pyrido[1,2-a]pyrimidin-9-yl)ethyl)amino)benzoic acid] | > 10000 nM | 796 nM
Cc1cc(C(C)Nc2ccccc2C(=O)O)c2nc(-c3ccncc3)cc(=O)n2c1 (stereo not shown) [Example 11-400, 2-((1-(7-methyl-4-oxo-2-(pyridin-4-yl)-4H-pyrido[1,2-a]pyrimidin-9-yl)ethyl)amino)benzoic acid] | > 10000 nM | 1050 nM
Cc1cc([C@@H](C)Nc2ccc(Cl)nc2C(=O)O)c2nc(N3CCCCC3)c(C)c(=O)n2c1 [Example 11-358, (R)-6-chloro-3-((1-(3,7-dimethyl-4-oxo-2-(piperidin-1-yl)-4H-pyrido[1,2-a]pyrimidin-9-yl)ethyl)amino)picolinic acid] | 6210 nM | 1260 nM
Cc1cc([C@@H](C)Nc2ccccc2C(=O)O)c2nc(N3CC4CCC(C3)C4O)c(C)c(=O)n2c1 (stereo partly drawn) [Example 10-146, 2-(((1R)-1-(2-(8-hydroxy-3-azabicyclo[3.2.1]octan-3-yl)-3,7-dimethyl-4-oxo-4H-pyrido[1,2-a]pyrimidin-9-yl)ethyl)amino)benzoic acid] | > 10000 nM | 100 nM
Cc1cc([C@@H](C)Nc2ccccc2C(=O)O)c2nc(N3CCN(c4cnn(C)c4)CC3)c(C)c(=O)n2c1 [Example 11-265, (R)-2-((1-(3,7-dimethyl-2-(4-(1-methyl-1H-pyrazol-4-yl)piperazin-1-yl)-4-oxo-4H-pyrido[1,2-a]pyrimidin-9-yl)ethyl)amino)benzoic acid] | > 10000 nM | 248 nM
Cc1c(N2Cc3ccccc3C2)nc2c([C@@H](C)Nc3ccccc3C(=O)O)cc(Cl)cn2c1=O [Example 11-291, (R)-2-((1-(7-chloro-2-(isoindolin-2-yl)-3-methyl-4-oxo-4H-pyrido[1,2-a]pyrimidin-9-yl)ethyl)amino)benzoic acid] | > 10000 nM | 117 nM
Cc1ccc(C#N)c(N2CCN(c3nc4c([C@@H](C)Nc5ccccc5C(=O)O)cc(C)cn4c(=O)c3C)[C@H](C)C2)c1 [Example 11-74, 2-(((R)-1-(2-((R)-4-(2-cyano-5-methylphenyl)-2-methylpiperazin-1-yl)-3,7-dimethyl-4-oxo-4H-pyrido[1,2-a]pyrimidin-9-yl)ethyl)amino)benzoic acid] | > 10000 nM | 1980 nM
Cc1cc([C@@H](C)Nc2ccccc2C(=O)O)c2nc(N3CC4(CCN(c5ccc(C#N)cc5)CC4)C3)c(C#N)c(=O)n2c1 [Example 11-172, (R)-2-((1-(3-cyano-2-(7-(4-cyanophenyl)-2,7-diazaspiro[3.5]nonan-2-yl)-7-methyl-4-oxo-4H-pyrido[1,2-a]pyrimidin-9-yl)ethyl)amino)benzoic acid] | > 10000 nM | 210 nM
Cc1cc([C@@H](C)Nc2ccccc2C(=O)O)c2nc(N3CCC(c4cc[nH]n4)CC3)c(C#N)c(=O)n2c1 [Example 11-53, (R)-2-((1-(2-(4-(1H-pyrazol-3-yl)piperidin-1-yl)-3-cyano-7-methyl-4-oxo-4H-pyrido[1,2-a]pyrimidin-9-yl)ethyl)amino)benzoic acid] | > 10000 nM | 2520 nM
Cc1cc([C@@H](C)Nc2ccccc2C(=O)O)c2nc(N3CC4(C3)CC3(CCC3)C4)c(C)c(=O)n2c1 [Example 11-26, (R)-2-((1-(2-(2-azadispiro[3.1.3^6.1^4]decan-2-yl)-3,7-dimethyl-4-oxo-4H-pyrido[1,2-a]pyrimidin-9-yl)ethyl)amino)benzoic acid] | > 10000 nM | 216 nM
Cc1cc([C@@H](C)Nc2ccccc2C(=O)O)c2nc(N3Cc4ccccc4C3CO)c(C#N)c(=O)n2c1 (stereo partly drawn) [Example 11-288, 2-(((1R)-1-(3-cyano-2-(1-(hydroxymethyl)isoindolin-2-yl)-7-methyl-4-oxo-4H-pyrido[1,2-a]pyrimidin-9-yl)ethyl)amino)benzoic acid] | > 10000 nM | 721 nM
Cc1cc([C@@H](C)Nc2ccccc2C(=O)O)c2nc(N3CC4CC(F)(F)CC4C3)c(C)c(=O)n2c1 (stereo partly drawn) [Example 11-444, 2-(((1R)-1-(2-(5,5-difluorohexahydrocyclopenta[c]pyrrol-2(1H)-yl)-3,7-dimethyl-4-oxo-4H-pyrido[1,2-a]pyrimidin-9-yl)ethyl)amino)benzoic acid] | > 10000 nM | 234 nM
Cc1cc([C@@H](C)Nc2ccccc2C(=O)O)c2nc(N3CCN(C4COC4)CC3)c(C#N)c(=O)n2c1 [Example 11-152, (R)-2-((1-(3-cyano-7-methyl-2-(4-(oxetan-3-yl)piperazin-1-yl)-4-oxo-4H-pyrido[1,2-a]pyrimidin-9-yl)ethyl)amino)benzoic acid] | > 10000 nM | 4340 nM
CNC(=O)c1ccc(N2CCN(c3nc4c([C@@H](C)Nc5ccccc5C(=O)O)cc(C)cn4c(=O)c3C)CC2)cc1 [Example 11-249, (R)-2-((1-(3,7-dimethyl-2-(4-(4-(methylcarbamoyl)phenyl)piperazin-1-yl)-4-oxo-4H-pyrido[1,2-a]pyrimidin-9-yl)ethyl)amino)benzoic acid] | > 10000 nM | 118 nM
Cc1cc([C@@H](C)Nc2ccccc2C(=O)O)c2nc(N3CCC(c4ccncc4)C3)c(C)c(=O)n2c1 (stereo partly drawn) [Example 10-9, 2-(((1R)-1-(3,7-dimethyl-4-oxo-2-(3-(pyridin-4-yl)pyrrolidin-1-yl)-4H-pyrido[1,2-a]pyrimidin-9-yl)ethyl)amino)benzoic acid] | > 10000 nM | 24.8 nM
Cc1cc([C@@H](C)Nc2ccc(C#N)cc2C(=O)O)c2nc(N3Cc4ccccc4C3)c(C)c(=O)n2c1 [Example 11-310, (R)-5-cyano-2-((1-(2-(isoindolin-2-yl)-3,7-dimethyl-4-oxo-4H-pyrido[1,2-a]pyrimidin-9-yl)ethyl)amino)benzoic acid] | > 10000 nM | 634 nM
Cc1cc([C@@H](C)Nc2ccccc2C(=O)O)c2nc(N3CC4CCCCCCC4C3)c(C)c(=O)n2c1 (stereo partly drawn) [Example 11-27, 2-(((1R)-1-(2-(decahydro-2H-cycloocta[c]pyrrol-2-yl)-3,7-dimethyl-4-oxo-4H-pyrido[1,2-a]pyrimidin-9-yl)ethyl)amino)benzoic acid] | > 10000 nM | 1600 nM
Cc1cc([C@@H](C)Nc2ccccc2C(=O)O)c2nc(N3CC4CC3CC4c3ccccc3)c(C)c(=O)n2c1 (stereo partly drawn) [Example 11-32, 2-(((1R)-1-(3,7-dimethyl-4-oxo-2-(5-phenyl-2-azabicyclo[2.2.1]heptan-2-yl)-4H-pyrido[1,2-a]pyrimidin-9-yl)ethyl)amino)benzoic acid] | > 10000 nM | 303 nM
Cc1cc(C(C)Nc2ccc(F)cc2C(=O)O)c2nc(N3Cc4ccccc4C3)c(C)c(=O)n2c1 (stereo not shown) [Example 11-367, 5-fluoro-2-((1-(2-(isoindolin-2-yl)-3,7-dimethyl-4-oxo-4H-pyrido[1,2-a]pyrimidin-9-yl)ethyl)amino)benzoic acid] | > 10000 nM | 600 nM
Cc1cc(C(C)Nc2ccccc2)c2nc(N3CCOCC3)cc(=O)n2c1 (stereo not shown) [Example 11-421, 7-methyl-2-morpholino-9-(1-(phenylamino)ethyl)-4H-pyrido[1,2-a]pyrimidin-4-one] | > 10000 nM | > 10000 nM
Cc1cc(C(C)Nc2ccccc2C(=O)O)c2nc(-c3ccc(=O)n(C)c3)cc(=O)n2c1 (stereo not shown) [Example 11-383, 2-((1-(7-methyl-2-(1-methyl-6-oxo-1,6-dihydropyridin-3-yl)-4-oxo-4H-pyrido[1,2-a]pyrimidin-9-yl)ethyl)amino)benzoic acid] | > 10000 nM | 4020 nM
Cc1cc([C@@H](C)Nc2ccccc2C(=O)O)c2nc(N3CC[C@H]3CF)c(C)c(=O)n2c1 [Example 11-94, 2-(((R)-1-(2-((S)-2-(fluoromethyl)azetidin-1-yl)-3,7-dimethyl-4-oxo-4H-pyrido[1,2-a]pyrimidin-9-yl)ethyl)amino)benzoic acid] | > 10000 nM | 185 nM
Cc1cc([C@@H](C)Nc2ccccc2C(=O)O)c2nc(N3CC(C)C(F)(F)C3)c(C)c(=O)n2c1 (stereo partly drawn) [Example 11-121, 2-(((1R)-1-(2-(3,3-difluoro-4-methylpyrrolidin-1-yl)-3,7-dimethyl-4-oxo-4H-pyrido[1,2-a]pyrimidin-9-yl)ethyl)amino)benzoic acid] | 5220 nM | 60 nM
COc1cccc(-c2cc(=O)n3cc(C)cc(C(C)Nc4ccccc4C(=O)O)c3n2)c1 (stereo not shown) [Example 11-393, 2-((1-(2-(3-methoxyphenyl)-7-methyl-4-oxo-4H-pyrido[1,2-a]pyrimidin-9-yl)ethyl)amino)benzoic acid] | > 10000 nM | 1300 nM
Cc1cc([C@@H](C)Nc2ccccc2C(=O)O)c2nc(N3C4CCC3c3ccccc34)c(C)c(=O)n2c1 [Example 11-215, 2-(((1R)-1-(3,7-dimethyl-4-oxo-2-(1,2,3,4-tetrahydro-1,4-epiminonaphthalen-9-yl)-4H-pyrido[1,2-a]pyrimidin-9-yl)ethyl)amino)benzoic acid] | > 10000 nM | 303 nM
